In PMC9960814, “The SlDOG1 Affect Biosynthesis of Steroidal Glycoalkaloids by Regulating GAME Expression in Tomato” (International Journal of Molecular Sciences, 2023) one finds Km data, which are given here for three compounds.

One series deals with SlGAME5-like. As to the kind of experiment: glycosyltransferase kinetics, […] substrate. It is filed as biochemical, Solanum lycopersicum. Particulars: 15 mM UDP-galactose as fixed glycosyl donor.
The test system of series [1] is O=c1c(O)c(-c2ccc(O)c(O)c2)oc2cc(O)cc(O)c12. In words: purified protein. It is filed as biochemical, Solanum lycopersicum. Particulars: 15 mM UDP-galactose as fixed glycosyl donor.

For `O=c1c(O)c(-c2ccc(O)c(O)c2)oc2cc(O)cc(O)c12` [quercetin], the Km in the series with SlGAME5-like was determined as 33 µM.

On to `C[C@H]1CC[C@]2(NC1)O[C@H]1C[C@H]3[C@@H]4CC[C@H]5C[C@@H](O)CC[C@]5(C)[C@H]4CC[C@]3(C)[C@H]1[C@@H]2C` [tomatidine], for which the Km in the series on SlGAME5-like (methods print the varied substrate as tomatine) was 40 µM. Consider SlGAME5 (Solanum lycopersicum), for which the Michaelis-Menten constant (Km) in series [1] is 17.50 µM.
